According to US20250326794A1, “ANTI-CANCER LEUCINE-RICH PEPTIDES AND USES THEREOF” (KING'S COLLEGE LONDON, priority 2019, published 2025):

Legend:
[1] = Tryptophan fluorescent binding assay, 3POPC/1POPG vesicles; conditions: 50 μM peptide, PBS pH 7.4, lipid per peptide
How it was run: (§1)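 Binding followed by tryptophan emission (300-450 nm, 280 nm excitation, 3 scans averaged) after 60 min incubation of 50 μM peptide with 0-5000 μM extruded 100 nm POPC or 3:1 POPC/POPG vesicles in PBS pH 7.4. Value: lipid-to-peptide ratio at half-maximal binding.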

[2] = ANTS/DPX liposome leakage assay, 3POPC/1POPG vesicles; assay type: biochemical; conditions: 0.5 mM vesicles; for Peptide Concentration-induced 50% ANTS/DPX leakage at pH 4.8, 3POPC/1POPG Vesicle: pH 4.8, lipid per peptide; for Peptide Concentration-induced 50% ANTS/DPX leakage at pH 7.4, 3POPC/1POPG Vesicle: pH 7.4, lipid per peptide
How it was run: (§2)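 Peptide titrations (0–20 μM) were incubated 3 h with 0.5 mM ANTS/DPX-loaded 100 nm vesicles, either POPC alone or 3:1 POPC/POPG, at pH 7.4 or pH 4.8 in PBS. ANTS fluorescence (350/510 nm) normalized to Triton-lysed vesicles; 50%-leakage values given as lipid:peptide ratio.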

[3] = tested on: U2OS (human bone osteosarcoma); conditions: 72 h
How it was run: (§3)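 MTT viability after 72 h exposure to 0–100 μM compound (final DMSO 0.5% or 0%), 5×10^3 cells/well; HMLER lines and MCF-10A in MEGM, U2OS in DMEM with 10% FBS. A550 normalized to matching vehicle controls; IC50 interpolated from dose–response curves.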

[4] = ANTS/DPX liposome leakage assay, POPC vesicles; assay type: biochemical; conditions: 0.5 mM vesicles; for Peptide Concentration-induced 50% ANTS/DPX leakage at pH 4.8, POPC Vesicle: pH 4.8, lipid per peptide; for Peptide Concentration-induced 50% ANTS/DPX leakage at pH 7.4, POPC Vesicle: pH 7.4, lipid per peptide
How it was run: as §2

[5] = Tryptophan fluorescent binding assay, POPC vesicles; conditions: 50 μM peptide, PBS pH 7.4, lipid per peptide
How it was run: as §1

[6] = tested on: HMLER (human breast cancer bulk cell); experiment: cells; conditions: 72 h
How it was run: as §3

[7] = tested on: HMLER-shEcad (human breast cancer stem cell); experiment: cells; conditions: 72 h
How it was run: as §3

[8] = tested on: HEK293T (human embryonic kidney cell); experiment: cells; conditions: 72 h

SMILES | Lipid Concentration-induced 50% Peptide Binding, 3POPC/1POPG Vesicle [1] | Peptide Concentration-induced 50% ANTS/DPX leakage at pH 4.8, 3POPC/1POPG Vesicle [2] | Peptide Concentration-induced 50% ANTS/DPX leakage at pH 7.4, 3POPC/1POPG Vesicle [2] | IC50 [3] | Peptide Concentration-induced 50% ANTS/DPX leakage at pH 4.8, POPC Vesicle [4] | Peptide Concentration-induced 50% ANTS/DPX leakage at pH 7.4, POPC Vesicle [4] | Lipid Concentration-induced 50% Peptide Binding, POPC Vesicle [5] | IC50 [6] | IC50 [7] | IC50 [8]
CC(C)C[C@H](NC(=O)CN)C(=O)N[C@@H](CC(C)C)C(=O)N[C@@H](CCCCN)C(=O)N[C@@H](CC(C)C)C(=O)N[C@@H](CC(C)C)C(=O)N[C@@H](CCC(=O)O)C(=O)N[C@@H](CC(C)C)C(=O)N[C@@H](CC(C)C)C(=O)N[C@@H](CC(C)C)C(=O)N[C@@H](Cc1c[nH]cn1)C(=O)N[C@@H](C)C(=O)N[C@@H](C)C(=O)NCC(=O)N[C@@H](Cc1c[nH]c2ccccc12)C(N)=O [KEH] | 0.50 L/P | 68 L/P | 286 L/P | 49.2 ± 5.3 µM | 188 L/P | 995 L/P | 1.00 L/P | 3.3 ± 0.42 µM | 2.35 ± 0.07 µM | 5.65 ± 0.07 µM
CC(C)C[C@H](NC(=O)CN)C(=O)N[C@@H](CC(C)C)C(=O)N[C@@H](CCCCN)C(=O)N[C@@H](CC(C)C)C(=O)N[C@@H](CC(C)C)C(=O)N[C@@H](CCC(=O)O)C(=O)N[C@@H](CC(C)C)C(=O)N[C@@H](CC(C)C)C(=O)N[C@@H](CC(C)C)C(=O)N[C@@H](CCCCN)C(=O)N[C@@H](C)C(=O)N[C@@H](C)C(=O)NCC(=O)N[C@@H](Cc1c[nH]c2ccccc12)C(N)=O [KEK] | 0.50 L/P | 126 L/P | 438 L/P | 8.15 ± 0.49 µM | 110 L/P | 1173 L/P | 0.47 L/P | 1.6 ± 0.14 µM | 1.35 ± 0.07 µM | 3.2 ± 0.14 µM
CC(C)C[C@H](NC(=O)CN)C(=O)N[C@@H](CC(C)C)C(=O)N[C@@H](CCCCN)C(=O)N[C@@H](CC(C)C)C(=O)N[C@@H](CC(C)C)C(=O)N[C@@H](Cc1c[nH]cn1)C(=O)N[C@@H](CC(C)C)C(=O)N[C@@H](CC(C)C)C(=O)N[C@@H](CC(C)C)C(=O)N[C@@H](CCC(=O)O)C(=O)N[C@@H](C)C(=O)N[C@@H](C)C(=O)NCC(=O)N[C@@H](Cc1c[nH]c2ccccc12)C(N)=O [KHE] | 0.71 L/P | 156 L/P | 188 L/P | 53 ± 2.83 µM | 183 L/P | 981 L/P | 0.88 L/P | 3.7 ± 0.14 µM | 2.92 ± 0.17 µM | 26 ± 2.83 µM
CC(C)C[C@H](NC(=O)CN)C(=O)N[C@@H](CC(C)C)C(=O)N[C@@H](CCCCN)C(=O)N[C@@H](CC(C)C)C(=O)N[C@@H](CC(C)C)C(=O)N[C@@H](Cc1c[nH]cn1)C(=O)N[C@@H](CC(C)C)C(=O)N[C@@H](CC(C)C)C(=O)N[C@@H](CC(C)C)C(=O)N[C@@H](Cc1c[nH]cn1)C(=O)N[C@@H](C)C(=O)N[C@@H](C)C(=O)NCC(=O)N[C@@H](Cc1c[nH]c2ccccc12)C(N)=O [KHH] | 0.94 L/P | 48 L/P | 329 L/P | 39.8 ± 5.3 µM | 227 L/P | 1153 L/P | 3.50 L/P | 5.2 ± 0.71 µM | 4.45 ± 0.49 µM | 7.75 ± 0.78 µM
CC(C)C[C@H](NC(=O)CN)C(=O)N[C@@H](CC(C)C)C(=O)N[C@@H](CCCCN)C(=O)N[C@@H](CC(C)C)C(=O)N[C@@H](CC(C)C)C(=O)N[C@@H](Cc1c[nH]cn1)C(=O)N[C@@H](CC(C)C)C(=O)N[C@@H](CC(C)C)C(=O)N[C@@H](CC(C)C)C(=O)N[C@@H](CCCCN)C(=O)N[C@@H](C)C(=O)N[C@@H](C)C(=O)NCC(=O)N[C@@H](Cc1c[nH]c2ccccc12)C(N)=O [KHK] | 0.38 L/P | 53 L/P | 193 L/P | 12.9 ± 1.24 µM | 140 L/P | 1153 L/P | 0.17 L/P | 2.59 ± 0.92 µM | 1.4 ± 0.14 µM | 3.55 ± 0.78 µM
CC(C)C[C@H](NC(=O)CN)C(=O)N[C@@H](CC(C)C)C(=O)N[C@@H](CCCCN)C(=O)N[C@@H](CC(C)C)C(=O)N[C@@H](CC(C)C)C(=O)N[C@@H](CCCCN)C(=O)N[C@@H](CC(C)C)C(=O)N[C@@H](CC(C)C)C(=O)N[C@@H](CC(C)C)C(=O)N[C@@H](CCC(=O)O)C(=O)N[C@@H](C)C(=O)N[C@@H](C)C(=O)NCC(=O)N[C@@H](Cc1c[nH]c2ccccc12)C(N)=O [KKE] | 0.44 L/P | 131 L/P | 346 L/P | 12.8 ± 1.2 µM | 143 L/P | 1133 L/P | 0.48 L/P | 2.05 ± 0.64 µM | 1.7 µM | 4.4 ± 0.14 µM
CC(C)C[C@H](NC(=O)CN)C(=O)N[C@@H](CC(C)C)C(=O)N[C@@H](CCCCN)C(=O)N[C@@H](CC(C)C)C(=O)N[C@@H](CC(C)C)C(=O)N[C@@H](CCCCN)C(=O)N[C@@H](CC(C)C)C(=O)N[C@@H](CC(C)C)C(=O)N[C@@H](CC(C)C)C(=O)N[C@@H](Cc1c[nH]cn1)C(=O)N[C@@H](C)C(=O)N[C@@H](C)C(=O)NCC(=O)N[C@@H](Cc1c[nH]c2ccccc12)C(N)=O [KKH] | 0.48 L/P | 49 L/P | 227 L/P | 13.3 ± 0.99 µM | 164 L/P | 2119 L/P | 0.83 L/P | 2.4 ± 0.85 µM | 2.2 ± 0.42 µM | 4 ± 0.28 µM
CC(C)C[C@H](NC(=O)CN)C(=O)N[C@@H](CC(C)C)C(=O)N[C@@H](CCCCN)C(=O)N[C@@H](CC(C)C)C(=O)N[C@@H](CC(C)C)C(=O)N[C@@H](CCCCN)C(=O)N[C@@H](CC(C)C)C(=O)N[C@@H](CC(C)C)C(=O)N[C@@H](CC(C)C)C(=O)N[C@@H](CCCCN)C(=O)N[C@@H](C)C(=O)N[C@@H](C)C(=O)NCC(=O)N[C@@H](Cc1c[nH]c2ccccc12)C(N)=O [KKK] | 1.70 L/P | 81 L/P | 115 L/P | 9.65 ± 1.2 µM | 156 L/P | 1369 L/P | 1.25 L/P | 1.57 ± 0.24 µM | 1.35 ± 0.4 µM | 3.7 ± 0.14 µM
